Measured values as given in ChEMBL document CHEMBL1201862, “PubChem BioAssay data set” (2004).
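Following 48 hours of exposure in 96-well plates, responses at five concentrations were used to interpolate endpoints linearly. Here, GI50 denotes the concentration required for 50% inhibition of growth.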 Activity calls are given as the source filed them. Cut-off read from the data, not from the text of the source: active = GI50 up to about 1.1 µM and inactive = higher.

How the values were obtained:
Test in all cases: NCI anticancer screen, dose series, 48 h
[1] = tested on: TK-10
[2] = tested on: HCC 2998
[3] = tested on: SF-295
[4] = tested on: ACHN
[5] = tested on: HOP-92
[6] = tested on: A549
[7] = tested on: OVCAR-4
[8] = tested on: SN12C
[9] = tested on: T47D
[10] = tested on: MCF7
[11] = tested on: BT-549
[12] = tested on: NCI-H522
[13] = tested on: KM12
[14] = tested on: UACC-62
[15] = tested on: SR
[16] = tested on: MDA-MB-435
[17] = tested on: U-251
[18] = tested on: EKVX
[19] = tested on: NCI/ADR-RES
[20] = tested on: SW-620

## Cc1nc2ccccc2nc1N1CCCC1
[1]
  GI50: > 100 µM (inactive)
[2]
  GI50: > 100 µM (inactive)
[3]
  GI50: > 100 µM (inactive)
[4]
  GI50: > 100 µM (inactive)
[5]
  GI50: > 100 µM (inactive)
[6]
  GI50: > 100 µM (inactive)
[7]
  GI50: > 100 µM (inactive)
[8]
  GI50: > 100 µM (inactive)
[9]
  GI50: > 100 µM (inactive)
[10]
  GI50: > 100 µM (inactive)
[11]
  GI50: > 100 µM (inactive)
[12]
  GI50: > 100 µM (inactive)
[13]
  GI50: > 100 µM (inactive)
[14]
  GI50: > 100 µM (inactive)
[15]
  GI50: > 100 µM (inactive)
[16]
  GI50: > 100 µM (inactive)
[17]
  GI50: > 100 µM (inactive)
[18]
  GI50: 34.2 µM (inactive)
[19]
  GI50: > 100 µM (inactive)
[20]
  GI50: > 100 µM (inactive)

## O=C1C(=Cc2ccccc2[N+](=O)[O-])N=C(c2ccccc2)N1n1c(-c2ccccc2)nc2ccccc2c1=O
[1]
  GI50: > 100 µM (inactive)
[2]
  GI50: 35.8 µM (inactive)
[3]
  GI50: 30.9 µM (inactive)
[4]
  GI50: 30.8 µM (inactive)
[5]
  GI50: 15.2 µM (inactive)
[6]
  GI50: 35.7 µM (inactive)
[7]
  GI50: 33.4 µM (inactive)
[8]
  GI50: 23 µM (inactive)
[9]
  GI50: 21 µM (inactive)
[10]
  GI50: 17.5 µM (inactive)
[11]
  GI50: 41.8 µM (inactive)
[12]
  GI50: 17 µM (inactive)
[13]
  GI50: 26.9 µM (inactive)
[14]
  GI50: 19.1 µM (inactive)
[15]
  GI50: 37.7 µM (inactive)
[16]
  GI50: 32.4 µM (inactive)
[17]
  GI50: 30 µM (inactive)
[18]
  GI50: 33.4 µM (inactive)
[19]
  GI50: 23.2 µM (inactive)
[20]
  GI50: 32.7 µM (inactive)

## CCCC[Si](CCCC)(CCCC)O[C@@H](/C=C/C(=O)OCC)[C@H](Cc1ccccc1)O[Si](CCCC)(CCCC)CCCC
[1]
  GI50: 40.1 µM (inactive)
[2]
  GI50: > 100 µM (inactive)
[3]
  GI50: > 100 µM (inactive)
[4]
  GI50: > 100 µM (inactive)
[5]
  GI50: > 100 µM (inactive)
[6]
  GI50: > 100 µM (inactive)
[7]
  GI50: > 100 µM (inactive)
[8]
  GI50: > 100 µM (inactive)
[9]
  GI50: > 100 µM (inactive)
[10]
  GI50: > 100 µM (inactive)
[11]
  GI50: > 100 µM (inactive)
[12]
  GI50: > 100 µM (inactive)
[13]
  GI50: > 100 µM (inactive)
[14]
  GI50: > 100 µM (inactive)
[15]
  GI50: > 100 µM (inactive)
[16]
  GI50: > 100 µM (inactive)
[17]
  GI50: > 100 µM (inactive)
[18]
  GI50: > 100 µM (inactive)
[19]
  GI50: > 100 µM (inactive)
[20]
  GI50: > 100 µM (inactive)

## C1CN(C23OC4(N5CCOCC5)C5C6CC(C7C6C4C72)C53)CCO1 (stereo not given)
[1]
  GI50: > 100 µM (inactive)
[2]
  GI50: > 100 µM (inactive)
[3]
  GI50: > 100 µM (inactive)
[4]
  GI50: > 31.6 µM (inactive)
[5]
  GI50: > 100 µM (inactive)
[6]
  GI50: > 100 µM (inactive)
[7]
  GI50: > 100 µM (inactive)
[8]
  GI50: > 100 µM (inactive)
[9]
  GI50: > 100 µM (inactive)
[10]
  GI50: > 100 µM (inactive)
[11]
  GI50: > 100 µM (inactive)
[12]
  GI50: > 83.4 µM (inactive)
[13]
  GI50: > 100 µM (inactive)
[14]
  GI50: > 100 µM (inactive)
[15]
  GI50: > 100 µM (inactive)
[16]
  GI50: > 100 µM (inactive)
[17]
  GI50: > 100 µM (inactive)
[18]
  GI50: > 100 µM (inactive)
[19]
  GI50: > 100 µM (inactive)
[20]
  GI50: > 100 µM (inactive)

## CCOC(=O)c1[nH]c(Br)c(-c2ccc(Br)cc2)c1Br
[1]
  GI50: 3.23 µM (inactive)
[2]
  GI50: 5.79 µM (inactive)
[3]
  GI50: 0.263 µM (active)
[4]
  GI50: 1.13 µM (inactive)
[5]
  GI50: 1.14 µM (inactive)
[6]
  GI50: 0.863 µM (active)
[7]
  GI50: 1.3 µM (inactive)
[8]
  GI50: 0.45 µM (active)
[9]
  GI50: 2.39 µM (inactive)
[10]
  GI50: 1.87 µM (inactive)
[11]
  GI50: 0.535 µM (active)
[12]
  GI50: 0.378 µM (active)
[13]
  GI50: 0.459 µM (active)
[14]
  GI50: 0.234 µM (active)
[15]
  GI50: 0.914 µM (active)
[16]
  GI50: 0.186 µM (active)
[17]
  GI50: 0.454 µM (active)
[18]
  GI50: 7.18 µM (inactive)
[19]
  GI50: 0.201 µM (active)
[20]
  GI50: 0.555 µM (active)

## C=C1CC/C=C(\C)C(=O)C[C@@H]2[C@@H]1CC2(C)C [BUDDLEDIN C]
[1]
  GI50: 3.13 µM (inactive)
[2]
  GI50: 3.4 µM (inactive)
[3]
  GI50: 15.5 µM (inactive)
[4]
  GI50: 2.18 µM (inactive)
[5]
  GI50: 1.97 µM (inactive)
[6]
  GI50: 13.9 µM (inactive)
[7]
  GI50: 0.743 µM (active)
[8]
  GI50: 1.59 µM (inactive)
[9]
  GI50: 2.31 µM (inactive)
[10]
  GI50: 0.561 µM (active)
[11]
  GI50: 2.45 µM (inactive)
[12]
  GI50: 0.439 µM (active)
[13]
  GI50: 15 µM (inactive)
[14]
  GI50: 5.96 µM (inactive)
[15]
  GI50: 0.0578 µM (active)
[16]
  GI50: 1.43 µM (inactive)
[17]
  GI50: 6.79 µM (inactive)
[18]
  GI50: 7.45 µM (inactive)
[19]
  GI50: 4.53 µM (inactive)
[20]
  GI50: 1.1 µM (active)
